Reference: US9688678B2, “Oxindole compounds carrying a nitrogen-bound spiro substituent and use thereof for treating vasopressin-related diseases” (AbbVie Deutschland GmbH & Co. KG, priority 2014, dated 2017)

Legend:
[1] = biological target: human vasopressin V1b receptor (Homo sapiens (Human), UniProt P47901); assay: Vasopressin V1b receptor binding assay; settings: membranes from CHO-K1 cells, displacement of 3H-AVP
Experimental: The test substances were dissolved in a concentration of 5 mM in 100% DMSO and further diluted to 5×10^−4 M to 5×10^−9 M. These serial DMSO predilutions were diluted 1:10 with assay buffer. The substance concentration was further diluted 1:5 in the assay mixture resulting in 2% DMSO in the mixture. All dilutions were performed in a Biomek NX automation workstation (Beckman)
The membrane pellet was again homogenized and centrifuged as described and subsequently taken up in 50 mM Tris-HCl, pH 7.4, homogenized and stored in aliquots frozen in liquid nitrogen at −190° C.
(§1) The incubation buffer was: 50 mM Tris, 10 mM MgCl2, 0.1% BSA, pH 7.4.
All determinations were carried out as duplicate determinations. […] The liquid scintillation measurement took place in a Microbeta TriLux 12 (Wallac). Analysis:
(§2) The binding parameters were calculated by nonlinear regression in SAS.

[2] = biological target: human vasopressin V1a receptor (Homo sapiens (Human), UniProt P37288); assay: Vasopressin V1a receptor binding assay; settings: selectivity quotient, human V1a vs human V1b receptor
human vasopressin V1a receptor, sequence (P37288 whole entry): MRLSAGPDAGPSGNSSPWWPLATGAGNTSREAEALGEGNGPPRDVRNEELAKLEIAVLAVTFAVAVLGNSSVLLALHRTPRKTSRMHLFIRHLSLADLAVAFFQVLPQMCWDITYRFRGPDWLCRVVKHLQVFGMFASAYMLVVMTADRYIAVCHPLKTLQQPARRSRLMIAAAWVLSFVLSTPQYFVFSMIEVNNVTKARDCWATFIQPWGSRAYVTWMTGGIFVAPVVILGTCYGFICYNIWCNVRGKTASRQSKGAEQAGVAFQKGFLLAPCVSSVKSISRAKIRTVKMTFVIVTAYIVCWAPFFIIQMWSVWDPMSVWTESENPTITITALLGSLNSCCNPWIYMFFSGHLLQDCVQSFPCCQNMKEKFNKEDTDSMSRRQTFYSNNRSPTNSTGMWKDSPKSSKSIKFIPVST
Experimental: The test substances were dissolved in a concentration of 5 mM M in DMSO. Further dilution of these DMSO solutions took place as described for V1b.
The membrane pellet was again homogenized in a High-Pressure-Homogenizer, Polytec 50K at 1500 PSI (Heinemann, Germany) and subsequently taken up in 50 mM Tris-HCl, pH 7.4, homogenized and stored in aliquots frozen in liquid nitrogen at −190° C.
as §1
Duplicate determinations were carried out.
After incubation (60 minutes at room temperature), the samples were processed as described for V1b.
as §2

human vasopressin V1b receptor, sequence (P47901 whole entry): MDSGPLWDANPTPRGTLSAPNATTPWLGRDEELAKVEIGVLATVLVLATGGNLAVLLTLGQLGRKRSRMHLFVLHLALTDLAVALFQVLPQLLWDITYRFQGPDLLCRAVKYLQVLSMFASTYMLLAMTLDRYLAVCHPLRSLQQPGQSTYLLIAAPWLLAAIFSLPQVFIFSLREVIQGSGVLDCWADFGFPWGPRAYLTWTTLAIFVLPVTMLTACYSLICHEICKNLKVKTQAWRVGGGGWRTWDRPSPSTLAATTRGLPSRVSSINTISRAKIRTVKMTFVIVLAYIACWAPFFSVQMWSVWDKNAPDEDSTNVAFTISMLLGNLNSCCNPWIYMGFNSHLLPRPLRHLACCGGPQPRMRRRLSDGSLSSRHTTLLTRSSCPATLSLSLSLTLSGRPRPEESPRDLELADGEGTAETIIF

With `COc1ccc(S(=O)(=O)N2C(=O)C(c3cccnc3OC)(N3CC4(CN(C5CCN(C)CC5)C4)C3)c3cc(C#N)ccc32)nc1` (racemic) [Example 22, (±)-3-(2-methoxy-3-pyridyl)-1-[(5-methoxy-2-pyridyl)sulfonyl]-3-[2-(1-methyl-4-piperidyl)-2,6-diazaspiro[3.3]heptan-6-yl]-2-oxo-indoline-5-carbonitrile] the Ki [1] was 1 to 10 nM and the “Ki(h-V1a)/ Ki(h-V1b)” value [2] was “+ (10-<25)”.
`COc1ccc(S(=O)(=O)N2C(=O)C(c3ccccc3OC)(N3CC4(CC(N5CCN(C)CC5)C4)C3)c3cc(C#N)ccc32)nc1` (racemic) [Example 26, (±)-3-(2-methoxyphenyl)-1-[(5-methoxy-2-pyridyl)sulfonyl]-3-[2-(4-methylpiperazin-1-yl)-6-azaspiro[3.3]heptan-6-yl]-2-oxo-indoline-5-carbonitrile] was tested, and the Ki [1] was 1 to 10 nM and the “Ki(h-V1a)/ Ki(h-V1b)” value [2] was “++ (25-75)”.
`CCOc1ncccc1C1(N2CC3(CC(N4CCN(C)CC4)C3)C2)C(=O)N(S(=O)(=O)c2ccc(OC)cn2)c2ccc(C#N)cc21` (racemic) [Example 27, (±)-3-(2-ethoxy-3-pyridyl)-1-[(5-methoxy-2-pyridyl)sulfonyl]-3-[2-(4-methylpiperazin-1-yl)-6-azaspiro[3.3]heptan-6-yl]-2-oxo-indoline-5-carbonitrile] was tested, and the Ki [1] was 1 to 10 nM and the “Ki(h-V1a)/ Ki(h-V1b)” value [2] was “+++ (>75)”.
For `CCOc1ccc(OC)cc1C1(N2CC3(CC(N4CCN(C5COC5)CC4)C3)C2)C(=O)N(S(=O)(=O)c2ccc(OC)cn2)c2ccc(C#N)cc21` (racemic) [Example 28, (±)-3-(2-ethoxy-5-methoxy-phenyl)-1-[(5-methoxy-2-pyridyl)sulfonyl]-3-[2-[4-(oxetan-3-yl)piperazin-1-yl]-6-azaspiro[3.3]heptan-6-yl]-2-oxo-indoline-5-carbonitrile], the Ki [1] was 1 to 10 nM and the “Ki(h-V1a)/ Ki(h-V1b)” value [2] was “+++ (>75)”.
`COc1ccc(S(=O)(=O)N2C(=O)C(c3cccnc3C(C)(F)F)(N3CC4(CN(C5CCN(C)CC5)C4)C3)c3cc(C#N)ccc32)nc1` (racemic) [Example 30, (±)-3-[2-(1,1-difluoroethyl)-3-pyridyl]-1-[(5-methoxy-2-pyridyl)sulfonyl]-3-[2-(1-methyl-4-piperidyl)-2,6-diazaspiro[3.3]heptan-6-yl]-2-oxo-indoline-5-carbonitrile] was tested, and the Ki [1] was 1 to 10 nM and the “Ki(h-V1a)/ Ki(h-V1b)” value [2] was “+ (10-<25)”.
With `CCOc1ccc(OC)cc1C1(N2CC3(CN(C4CCN(C)CC4)C3)C2)C(=O)N(S(=O)(=O)c2ccc(OC)cn2)c2ccc(C#N)cc21` (single isomer, unassigned; (+)) [Example 1A, (+)-3-(2-ethoxy-5-methoxy-phenyl)-1-[(5-methoxy-2-pyridyl)sulfonyl]-3-[2-(1-methyl-4-piperidyl)-2,6-diazaspiro[3.3]heptan-6-yl]-2-oxo-indoline-5-carbonitrile] the Ki [1] was < 1 nM and the “Ki(h-V1a)/ Ki(h-V1b)” value [2] was “+++ (>75)”.
`CCOc1ncccc1C1(N2CC3(CN(C4CCN(C)CC4)C3)C2)C(=O)N(S(=O)(=O)c2ccc(OC)cn2)c2ccc(C#N)cc21` (single isomer, unassigned; (+)) [Example 9A, (+)-3-(2-ethoxy-3-pyridyl)-1-[(5-methoxy-2-pyridyl)sulfonyl]-3-[2-(1-methyl-4-piperidyl)-2,6-diazaspiro[3.3]heptan-6-yl]-2-oxo-indoline-5-carbonitrile] was tested, and the Ki [1] was < 1 nM and the “Ki(h-V1a)/ Ki(h-V1b)” value [2] was “+++ (>75)”.
For `CCOc1ccc(OC)cc1C1(N2CC3(CN(C4CCN(C5COC5)CC4)C3)C2)C(=O)N(S(=O)(=O)c2ccc(OC)cn2)c2ccc(C#N)cc21` (single isomer, unassigned; (+)) [Example 11, (+)-3-(2-ethoxy-5-methoxyphenyl)-1-((5-methoxypyridin-2-yl)sulfonyl)-3-(6-(1-(oxetan-3-yl)piperidin-4-yl)-2,6-diazaspiro[3.3]heptan-2-yl)-2-oxoindoline-5-carbonitrile], the Ki [1] was < 1 nM and the “Ki(h-V1a)/ Ki(h-V1b)” value [2] was “+++ (>75)”.
With `CCOc1ccc(OC)cc1C1(N2CC3(CC(N4CCN(C)CC4)C3)C2)C(=O)N(S(=O)(=O)c2ccc(OC)cn2)c2ccc(C#N)cc21` (single isomer, unassigned; (+)) [Example 17B, (+)-3-(2-ethoxy-5-methoxy-phenyl)-1-[(5-methoxy-2-pyridyl)sulfonyl]-3-[2-(4-methylpiperazin-1-yl)-6-azaspiro[3.3]heptan-6-yl]-2-oxo-indoline-5-carbonitrile] the Ki [1] was < 1 nM and the “Ki(h-V1a)/ Ki(h-V1b)” value [2] was “+++ (>75)”.
`COc1ccc(S(=O)(=O)N2C(=O)C(c3ccccc3OC)(N3CC4(CN(C5CCN(C)CC5)C4)C3)c3cc(C#N)ccc32)nc1` (single isomer, unassigned; (+)) [Example 18A, (+)-3-(2-methoxyphenyl)-1-[(5-methoxy-2-pyridyl)sulfonyl]-3-[2-(1-methyl-4-piperidyl)-2,6-diazaspiro[3.3]heptan-6-yl]-2-oxo-indoline-5-carbonitrile] was tested, and the Ki [1] was < 1 nM and the “Ki(h-V1a)/ Ki(h-V1b)” value [2] was “+ (10-<25)”.
In the case of `COc1ccc(S(=O)(=O)N2C(=O)C(c3ccccc3OC)(N3CC4(CN(C5CCN(C6COC6)CC5)C4)C3)c3cc(C#N)ccc32)nc1` (single isomer, unassigned; (+)) [Example 23, (+)-3-(2-methoxyphenyl)-1-[(5-methoxy-2-pyridyl)sulfonyl]-3-[2-[1-(oxetan-3-yl)-4-piperidyl]-2,6-diazaspiro[3.3]heptan-6-yl]-2-oxo-indoline-5-carbonitrile], the Ki [1] is reported as 1 to 10 nM and the “Ki(h-V1a)/ Ki(h-V1b)” value [2] is reported as “+ (10-<25)”.
For `CCOc1ccc(OC)cc1C1(N2CC3(CN(c4ccnc(C)c4)C3)C2)C(=O)N(S(=O)(=O)c2ccc(OC)cc2OC)c2ccc(C#N)cc21` (single isomer, unassigned; (+)) [Example 24, (+)-1-(2,4-dimethoxyphenyl)sulfonyl-3-(2-ethoxy-5-methoxy-phenyl)-3-[2-(2-methyl-4-pyridyl)-2,6-diazaspiro[3.3]heptan-6-yl]-2-oxo-indoline-5-carbonitrile], the Ki [1] was 10 to 100 nM and the “Ki(h-V1a)/ Ki(h-V1b)” value [2] was “+++ (>75)”.
In the case of `CCOc1ccc(OC)cc1C1(N2CC3(CN(c4ccnc(C)c4)C3)C2)C(=O)N(S(=O)(=O)c2ccc(OC)cn2)c2ccc(C#N)cc21` (single isomer, unassigned; (+)) [Example 25, (+)-3-(2-ethoxy-5-methoxy-phenyl)-1-[(5-methoxy-2-pyridyl)sulfonyl]-3-[2-(2-methyl-4-pyridyl)-2,6-diazaspiro[3.3]heptan-6-yl]-2-oxo-indoline-5-carbonitrile], the Ki [1] is reported as < 1 nM and the “Ki(h-V1a)/ Ki(h-V1b)” value [2] is reported as “+++ (>75)”.
For `CCOc1ccc(OC)cc1C1(N2CC3(CN(C4CCN(C)CC4)C3)C2)C(=O)N(S(=O)(=O)c2ccc(OC)cn2)c2ccc(C#N)cc21` (single isomer, unassigned; (-)) [Example 1B, (−)-3-(2-ethoxy-5-methoxy-phenyl)-1-[(5-methoxy-2-pyridyl)sulfonyl]-3-[2-(1-methyl-4-piperidyl)-2,6-diazaspiro[3.3]heptan-6-yl]-2-oxo-indoline-5-carbonitrile], the Ki [1] was 10 to 100 nM and the “Ki(h-V1a)/ Ki(h-V1b)” value [2] was “+++ (>75)”.
In the case of `CCOc1ccc(OC)cc1[C@]1(N2CC3(CN(C4CCN(C)CC4)C3)C2)C(=O)N(S(=O)(=O)c2ccc(OC)nc2)c2ccc(C#N)cc21` [Example 31, (3S)-3-(2-ethoxy-5-methoxy-phenyl)-1-[(6-methoxy-3-pyridyl)sulfonyl]-3-[2-(1-methyl-4-piperidyl)-2,6-diazaspiro[3.3]heptan-6-yl]-2-oxo-indoline-5-carbonitrile], the Ki [1] is reported as 1 to 10 nM and the “Ki(h-V1a)/ Ki(h-V1b)” value [2] is reported as “+ (10-<25)”.
